Test results: patent publication US8394796B2, “Bicyclic pyrimidine PI3K inhibitor compounds selective for P110 delta, and methods of use” (Genentech, Inc., priority 2009, dated 2013)

Tests used:
[1] = biological target: T1, p110δ/p85α (PI3K p110 delta) (Homo sapiens, UniProt O00329); assay: PI3K isoform inhibition assay (fluorescence polarization PIP3 displacement; alternatively radiometric), p110 delta; format: biochemical; conditions: for IC50: PI3K p110 delta binding IC50; for IC50 p110 alpha/IC50 p110 delta: delta/alpha selectivity: ratio of p110 alpha IC50 to p110 delta IC50
T1 construct: purchased Upstate Group, Millipore; Dundee, UK
Protocol: PI3K Isoform Inhibition Assay (p110 Alpha, Beta, Gamma, Delta: α, β, γ, δ)
PI3K enzymatic activity was assayed by measuring the amount of product phosphatidylinositol 3,4,5-phosphate (PIP3) formed from substrate 4,5 phosphatidylinositol 4,5-phosphate (PIP2) using a fluorescence polarization displacement assay. The decrease in fluorescence polarization of a fluorescent PIP3 probe is measured as it is displaced from a PIP3-binding protein GRP-1 detector by PI3K-catalyzed product. […] The kinase reactions were initiated by the addition of 40 ng/mL p110α/p85α, 300 ng/mL p110β/p85α, 40 ng/mL p110γ, or 40 ng/mL p110δ/p85α (Upstate Group, Millipore; Dundee, UK), and 10 μM PIP2 (Echelon Biosciences) to the wells. […] After 60 minutes of incubation at room temperature to allow equilibration of labeled and unlabeled PIP3 binding, the parallel and perpendicular components of the fluorescence emissions from each sample were measured at an excitation wavelength of 530 nm and an emission wavelength of 590 nm using an Envision fluorescent plate reader with a rhodamine filter (PerkinElmer Life and Analytical Sciences; Wellesley, Mass.). The assay is capable of detecting 0.1-2.0 μM PIP3 product. The IC50 values were obtained by fitting the dose-dependent inhibition data to a 4-parameter equation using Assay Explorer software (MDL, San Ramon, Calif.).
The Formula I compound was serially diluted in 100% DMSO. The kinase reaction was incubated for 1 h at room temperature, and the reaction was terminated by the addition of PBS. IC50 values were subsequently determined using sigmoidal dose-response curve fit (variable slope).
HT baculovirus expression system (GIBCO/BRL), and then purified for use in biochemical assays. The four Class I PI 3-kinases are cloned into baculovirus vectors as follows: […]

[2] = system: CD69 positive cells that are also CD20 positive, stimulated by anti-IgM, in human whole blood; assay: CD69 whole blood assay (human whole blood, anti-IgM stimulated); format: cell-based; conditions: concentration decreasing by 50% the percent CD69 positive of CD20 positive cells stimulated by anti-IgM, 20 hours, read-out: IC50 in the CD69 Whole Blood Assay
Protocol: Human blood is obtained from healthy volunteers, with the following restrictions: 1 week drug-free, non-smokers. Blood (approximately 20 mls to test 8 compounds) is collected by venipuncture into Vacutainer tubes with sodium heparin.
Solutions of Formula I compounds at 1000 or 2000 μM in PBS (20×), are diluted by three-fold serial dilutions in 10% DMSO in PBS for a nine point dose-response curve. An aliquot of 5.5 μl of each compound is added in duplicate to a 2 ml 96-well plate; 5.5 μl of 10% DMSO in PBS is added as control and no-stimulus wells. Human whole blood—HWB (100 μl) is added to each well. After mixing the plates are incubated at 37° C., 5% CO2, 100% humidity for 30 minutes. Goat F(ab′)2 anti-human IgM (10 μl of a […] solution, 50 μg/ml final) is added to each well (except the no-stimulus wells) with mixing and the plates are incubated for an additional 20 hours. At the end of the 20 hour incubation, samples are incubated with florescent labeled antibodies for 30 minutes, at 37° C., 5% CO2, 100% humidity. Include induced control, unstained and single stains for compensation adjustments and initial voltage settings. Samples are then lysed with Pharmingen Lyse according to the manufacturer's instructions. Samples are then transferred to a 96 well plate suitable to be run on the AMS 96 well system on the BD Calibur FACs machine. Data acquired and Mean Fluorescence Intensity values were obtained using Cell Quest Software. Results are initially analyzed by FACS analysis software (Flow Jo). […] The IC50 values are calculated by Activityl)ase using Xlfit version 3, equation 201.

T1 sequence (O00329 whole entry, canonical isoform): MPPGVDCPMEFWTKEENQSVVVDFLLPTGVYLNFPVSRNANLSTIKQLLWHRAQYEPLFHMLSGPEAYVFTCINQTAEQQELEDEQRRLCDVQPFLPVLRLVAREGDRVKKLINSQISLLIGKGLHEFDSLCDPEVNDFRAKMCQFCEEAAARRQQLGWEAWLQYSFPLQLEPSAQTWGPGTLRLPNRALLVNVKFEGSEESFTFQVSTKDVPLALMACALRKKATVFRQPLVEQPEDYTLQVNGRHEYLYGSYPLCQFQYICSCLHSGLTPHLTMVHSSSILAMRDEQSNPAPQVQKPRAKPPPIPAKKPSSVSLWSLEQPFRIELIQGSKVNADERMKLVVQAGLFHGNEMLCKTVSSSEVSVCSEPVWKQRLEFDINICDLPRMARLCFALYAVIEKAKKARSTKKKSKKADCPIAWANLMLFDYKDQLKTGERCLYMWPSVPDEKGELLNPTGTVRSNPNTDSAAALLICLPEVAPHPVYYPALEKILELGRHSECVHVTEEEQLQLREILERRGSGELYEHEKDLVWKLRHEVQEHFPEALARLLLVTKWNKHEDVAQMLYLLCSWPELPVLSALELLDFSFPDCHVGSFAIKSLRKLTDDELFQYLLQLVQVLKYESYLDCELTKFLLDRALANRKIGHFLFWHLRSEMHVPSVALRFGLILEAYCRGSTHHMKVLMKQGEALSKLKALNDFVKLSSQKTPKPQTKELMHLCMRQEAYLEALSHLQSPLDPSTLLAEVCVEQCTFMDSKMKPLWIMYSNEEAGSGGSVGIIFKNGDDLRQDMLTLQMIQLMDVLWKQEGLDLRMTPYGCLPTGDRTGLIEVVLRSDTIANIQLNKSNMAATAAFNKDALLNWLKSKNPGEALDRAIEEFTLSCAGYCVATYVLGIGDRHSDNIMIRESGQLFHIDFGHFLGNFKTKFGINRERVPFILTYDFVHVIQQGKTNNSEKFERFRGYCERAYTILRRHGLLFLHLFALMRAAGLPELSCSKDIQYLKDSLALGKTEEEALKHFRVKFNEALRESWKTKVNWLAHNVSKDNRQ
T1 sequence (P27986 whole entry partner, canonical isoform): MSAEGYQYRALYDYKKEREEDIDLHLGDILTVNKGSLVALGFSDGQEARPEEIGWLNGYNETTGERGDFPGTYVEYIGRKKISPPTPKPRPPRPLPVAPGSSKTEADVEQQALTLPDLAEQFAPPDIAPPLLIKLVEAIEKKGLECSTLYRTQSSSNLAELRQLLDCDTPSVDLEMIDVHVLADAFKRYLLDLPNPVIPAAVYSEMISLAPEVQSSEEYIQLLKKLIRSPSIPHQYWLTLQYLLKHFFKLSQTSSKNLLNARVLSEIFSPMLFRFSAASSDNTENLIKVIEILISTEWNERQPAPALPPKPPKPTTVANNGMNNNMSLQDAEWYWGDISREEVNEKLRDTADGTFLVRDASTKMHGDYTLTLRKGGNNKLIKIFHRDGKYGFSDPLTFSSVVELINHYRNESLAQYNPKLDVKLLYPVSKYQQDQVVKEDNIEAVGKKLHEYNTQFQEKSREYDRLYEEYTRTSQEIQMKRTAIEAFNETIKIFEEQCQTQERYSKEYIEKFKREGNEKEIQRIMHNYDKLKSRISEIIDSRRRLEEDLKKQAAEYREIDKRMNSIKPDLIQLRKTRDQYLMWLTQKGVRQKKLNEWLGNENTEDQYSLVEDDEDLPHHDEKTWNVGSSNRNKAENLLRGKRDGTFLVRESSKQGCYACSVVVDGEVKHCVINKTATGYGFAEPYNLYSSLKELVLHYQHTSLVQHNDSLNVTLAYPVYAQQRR

Q: With `CN(C)C1CCN(Cc2cc3nc(-n4ccc5cnccc54)nc(N4CCOCC4)c3s2)CC1` [Example 149, N,N-dimethyl-1-((4-morpholino-2-(1H-pyrrolo[3,2-c]pyridin-1-yl)thieno[3,2-d]pyrimidin-6-yl)methyl)piperidin-4-amine] as the molecule, how does the IC50 [1] read?
A: 6.9 nM

Q: And the “IC50 p110 alpha/IC50 p110 delta” value [1]?
A: 30

Q: Which results are given for `CCc1nc2ccccc2n1-c1nc(N2CCOCC2)c2nc(CCN3CCOCC3(C)C)n(C)c2n1` [Example 535, 4-(2-(2-(2-ethyl-1H-benzo[d]imidazol-1-yl)-9-methyl-6-morpholino-9H-purin-8-yl)ethyl)-3,3-dimethylmorpholine]?
A: IC50 [1]: 9.9 nM; IC50 p110 alpha/IC50 p110 delta [1]: 49

Q: `CCc1nc2ccccc2n1-c1nc(N2CCOCC2)c2nc(CN3CCC(C4COC4)CC3)n(C)c2n1` [Example 314, 4-(2-(2-ethyl-1H-benzo[d]imidazol-1-yl)-9-methyl-8-((4-(oxetan-3-yl)piperidin-1-yl)methyl)-9H-purin-6-yl)morpholine] was tested. Which IC50 [2] did it give?
A: 44.1 nM

Q: Which IC50 [2] does the source give for `CNc1nc2ccccc2n1-c1nc(N2CCOCC2)c2nc(CN3CCN(C(C)(C)C)CC3)n(C)c2n1` [Example 428, 1-(8-((4-tert-butylpiperazin-1-yl)methyl)-9-methyl-6-morpholino-9H-purin-2-yl)-N-methyl-1H-benzo[d]imidazol-2-amine] here?
A: 34.2 nM

Q: How did the IC50 [2] turn out when `Cc1nc2ccccc2n1-c1nc(N2CCOCC2)c2nc(CN3CCC(C(C)(C)O)CC3)[nH]c2n1` [Example 702, 2-(1-((2-(2-methyl-1H-benzo[d]imidazol-1-yl)-6-morpholino-9H-purin-8-yl)methyl)piperidin-4-yl)propan-2-ol] was run?
A: 28.6 nM

Q: How did the IC50 [1] turn out when `COc1cccc(-c2nc3c(N4CCOCC4)nc(-n4c(C(C)C)nc5ccccc54)nc3n2C)c1` [Example 683, 4-(2-(2-isopropyl-1H-benzo[d]imidazol-1-yl)-8-(3-methoxyphenyl)-9-methyl-9H-purin-6-yl)morpholine] was run?
A: 31.7 nM

Q: What about the “IC50 p110 alpha/IC50 p110 delta” value [1] of the same molecule?
A: 23

Q: Which “IC50 p110 alpha/IC50 p110 delta” value [1] does the source give for `CCc1nc2ccccc2n1-c1nc(N2CCOCC2)c2nc(CN3CCC(C(C)(C)O)CC3)[nH]c2n1` [Example 701, 2-(1-((2-(2-ethyl-1H-benzo[d]imidazol-1-yl)-6-morpholino-9H-purin-8-yl)methyl)piperidin-4-yl)propan-2-ol] here?
A: 50

Q: `CC(C)c1nc2ccccc2n1-c1nc(N2CCOCC2)c2nc(-c3cccnc3)n(C)c2n1` [Example 676, 4-(2-(2-isopropyl-1H-benzo[d]imidazol-1-yl)-9-methyl-8-(pyridin-3-yl)-9H-purin-6-yl)morpholine] was tested. Which IC50 [1] did it give?
A: 13.6 nM

Q: And the “IC50 p110 alpha/IC50 p110 delta” value [1]?
A: 14

Q: Which results are given for `Cn1c(CN2CC(C3CCOCC3)C2)nc2c(N3CCOCC3)nc(-n3c(C4CC4)nc4ccccc43)nc21` [Example 499, 4-(2-(2-cyclopropyl-1H-benzo[d]imidazol-1-yl)-9-methyl-8-((3-(tetrahydro-2H-pyran-4-yl)azetidin-1-yl)methyl)-9H-purin-6-yl)morpholine]?
A: IC50 [1]: 6.3 nM; IC50 p110 alpha/IC50 p110 delta [1]: 75

Q: `Cc1oc2ccccc2c1-c1nc(N2CCOCC2)c2nc(CN3CCN(C(C)(C)C(N)=O)CC3)sc2n1` [Example 211, 2-methyl-2-(4-((5-(2-methylbenzofuran-3-yl)-7-morpholinothiazolo[5,4-d]pyrimidin-2-yl)methyl)piperazin-1-yl)propanamide] was tested. Which IC50 [1] did it give?
A: 9.7 nM

Q: And the “IC50 p110 alpha/IC50 p110 delta” value [1]?
A: >300

Q: Which IC50 [1] does the source give for `Cn1c(CN2CCC(C(C)(C)O)CC2)nc2c(N3CCOCC3)nc(-c3cnc(N)c4ccccc34)nc21` [Example 115, 2-(1-((2-(1-aminoisoquinolin-4-yl)-9-methyl-6-morpholino-9H-purin-8-yl)methyl)piperidin-4-yl)propan-2-ol] here?
A: 7.2 nM

Q: And the “IC50 p110 alpha/IC50 p110 delta” value [1]?
A: 34

Q: Which results are given for `CC(C)(C(N)=O)N1CCN(Cc2nc3c(N4CCOCC4)nc(-c4cncc5[nH]ccc45)nc3s2)CC1` [Example 131, 2-methyl-2-(4-((7-morpholino-5-(1H-pyrrolo[2,3-c]pyridin-4-yl)thiazolo[5,4-d]pyrimidin-2-yl)methyl)piperazin-1-yl)propanamide]?
A: IC50 [1]: 1.3 nM; IC50 p110 alpha/IC50 p110 delta [1]: 32

Q: For `Cn1c(CN2CCC(C(C)(C)O)CC2)nc2c(N3CCOCC3)nc(-c3n[nH]c4ccccc34)nc21` [Example 162, 2-(1-((2-(1H-indazol-3-yl)-9-methyl-6-morpholino-9H-purin-8-yl)methyl)piperidin-4-yl)propan-2-ol], which IC50 [1] is on record?
A: 14.6 nM

Q: And the “IC50 p110 alpha/IC50 p110 delta” value [1]?
A: 191

Q: How did the IC50 [1] turn out when `c1cc(-c2nc(N3CCOCC3)c3sc(CN4CCC(N5CCOCC5)CC4)cc3n2)c2ccncc2c1` [Example 101, 4-(1-((2-(isoquinolin-5-yl)-4-morpholinothieno[3,2-d]pyrimidin-6-yl)methyl)piperidin-4-yl)morpholine] was run?
A: 101 nM

Q: And the “IC50 p110 alpha/IC50 p110 delta” value [1]?
A: 53

Q: Which results are given for `Cc1c(CN2CCN(C(C)(C)C(N)=O)CC2)sc2c(N3CCOCC3)nc(-c3cncc4[nH]ccc34)nc12` [Example 112, 2-methyl-2-(4-((7-methyl-4-morpholino-2-(1H-pyrrolo[2,3-c]pyridin-4-yl)thieno[3,2-d]pyrimidin-6-yl)methyl)piperazin-1-yl)propanamide]?
A: IC50 [1]: 1.8 nM; IC50 p110 alpha/IC50 p110 delta [1]: 29

Q: For `CCc1nc2ccccc2n1-c1nc(N2CCOCC2)c2nc(CN3C[C@@H]4C[C@H]3CN4C(C)(C)CO)n(C)c2n1` [Example 521, 2-((1S,4S)-5-((2-(2-ethyl-1H-benzo[d]imidazol-1-yl)-9-methyl-6-morpholino-9H-purin-8-yl)methyl)-2,5-diazabicyclo[2.2.1]heptan-2-yl)-2-methylpropan-1-ol], which IC50 [1] is on record?
A: 1.45 nM

Q: And the “IC50 p110 alpha/IC50 p110 delta” value [1]?
A: 150

Q: What does the source list for `CCc1nc2ccccc2n1-c1nc(N2CCOCC2)c2nc(CC3CN(C4CCS(=O)(=O)CC4)C3)n(C)c2n1` [Example 501, 4-(2-(2-ethyl-1H-benzo[d]imidazol-1-yl)-9-methyl-8-((1-(tetrahydro-2H-(1,1-dioxo)-thiopyran-4-yl)azetidin-3-yl)methyl)-9H-purin-6-yl)morpholine]?
A: IC50 [1]: 0.589 nM; IC50 p110 alpha/IC50 p110 delta [1]: 140

Q: For `CC(C)(C(N)=O)N1CCN(Cc2nc3nc(-c4cccc5nccn45)nc(N4CCOCC4)c3s2)CC1` [Example 248, 2-(4-((5-(imidazo[1,2-a]pyridin-5-yl)-7-morpholinothiazolo[4,5-d]pyrimidin-2-yl)methyl)piperazin-1-yl)-2-methylpropanamide], which IC50 [1] is on record?
A: 42.9 nM

Q: What about the “IC50 p110 alpha/IC50 p110 delta” value [1] of the same molecule?
A: 35

Q: Which results are given for `CCc1nc2ccccc2n1-c1nc(N2CCOCC2)c2nc(CC(=O)N3CCC(C(C)(C)O)CC3)sc2n1` [Example 549, 2-(5-(2-ethyl-1H-benzo[d]imidazol-1-yl)-7-morpholinothiazolo[5,4-d]pyrimidin-2-yl)-1-(4-(2-hydroxypropan-2-yl)piperidin-1-yl)ethanone]?
A: IC50 [1]: 9.4 nM; IC50 p110 alpha/IC50 p110 delta [1]: 14

Q: What does the source list for `CCc1nc2ccccc2n1-c1nc(N2CCOCC2)c2nc(CN3CCN(C(C)(C)CO)CC3)[nH]c2n1` [Example 489, 2-(4-((2-(2-ethyl-1H-benzo[d]imidazol-1-yl)-6-morpholino-9H-purin-8-yl)methyl)piperazin-1-yl)-2-methylpropan-1-ol]?
A: IC50 [1]: 1.37 nM; IC50 p110 alpha/IC50 p110 delta [1]: 157

Q: `COC(C)(C)C1CCN(Cc2nc3c(N4CCOCC4)nc(-c4c(C)oc5ccccc45)nc3n2C)CC1` [Example 200, 4-(8-((4-(2-methoxypropan-2-yl)piperidin-1-yl)methyl)-9-methyl-2-(2-methylbenzofuran-3-yl)-9H-purin-6-yl)morpholine] was tested. Which IC50 [1] did it give?
A: 22.2 nM

Q: And the “IC50 p110 alpha/IC50 p110 delta” value [1]?
A: 54
